# Experiments:
# Carbonic anhydrase 9 = Carbonic anhydrase 9 (Homo sapiens, UniProt Q16790); assay: Inhibition of human carbonic anhydrase 9 by stopped flow CO2 hydration assay
# Carbonic anhydrase 1 = Carbonic anhydrase 1 (Homo sapiens, UniProt P00915); assay: Inhibition of human carbonic anhydrase 1 by stopped flow CO2 hydration assay
# Chain of Carbonic anhydrase 1 (P00915 whole entry): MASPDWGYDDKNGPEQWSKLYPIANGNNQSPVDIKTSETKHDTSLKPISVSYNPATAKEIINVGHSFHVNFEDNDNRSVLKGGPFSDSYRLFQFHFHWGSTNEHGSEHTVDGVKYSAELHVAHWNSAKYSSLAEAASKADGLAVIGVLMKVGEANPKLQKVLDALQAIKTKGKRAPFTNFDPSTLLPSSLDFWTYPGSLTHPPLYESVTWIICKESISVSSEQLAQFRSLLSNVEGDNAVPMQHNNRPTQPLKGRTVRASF
Ki (Carbonic anhydrase 9) [nM],Ki (Carbonic anhydrase 1) [nM],SMILES
207,–,Cc1c(C(=O)NCCN2CCN(C)CC2)cc(-c2ccc(-c3ccccc3)cc2)n1-c1ccc(S(N)(=O)=O)cc1
187,–,Cc1c(C(=O)NCCN2CCOCC2)cc(-c2ccc(-c3ccccc3)cc2)n1-c1ccc(S(N)(=O)=O)cc1
101,–,Cc1c(C(=O)NCCCN2CCOCC2)cc(-c2ccc(-c3ccccc3)cc2)n1-c1ccc(S(N)(=O)=O)cc1
135,–,Cc1c(C(=O)N2CCN(C)CC2)cc(-c2ccccc2)n1-c1ccc(S(N)(=O)=O)cc1
200,–,Cc1c(C(=O)NCCN2CCOCC2)cc(-c2ccccc2)n1-c1ccc(S(N)(=O)=O)cc1
10,–,Cc1c(C(=O)NCCN(C)C)cc(-c2ccc3ccccc3c2)n1-c1ccc(S(N)(=O)=O)cc1
11,–,Cc1c(C(=O)NCCCN(C)C)cc(-c2ccc3ccccc3c2)n1-c1ccc(S(N)(=O)=O)cc1
–,> 10000,Cc1c(C(=O)N2CCN(C)CC2)cc(-c2ccc3ccccc3c2)n1-c1ccc(S(N)(=O)=O)cc1
125,–,Cc1c(C(=O)NCCN2CCCCC2)cc(-c2ccc3ccccc3c2)n1-c1ccc(S(N)(=O)=O)cc1
126,–,Cc1c(C(=O)NCCN2CCN(C)CC2)cc(-c2ccc3ccccc3c2)n1-c1ccc(S(N)(=O)=O)cc1
147,–,Cc1c(C(=O)NCCCN2CCN(C)CC2)cc(-c2ccc3ccccc3c2)n1-c1ccc(S(N)(=O)=O)cc1
22,–,Cc1c(C(=O)NCCN2CCOCC2)cc(-c2ccc3ccccc3c2)n1-c1ccc(S(N)(=O)=O)cc1
111,–,Cc1c(C(=O)NCCCN(C)C)cc(-c2ccc(-c3ccccc3)cc2)n1-c1ccc(S(N)(=O)=O)cc1
68,–,Cc1c(C(=O)N2CCN(C)CC2)cc(-c2ccc(-c3ccccc3)cc2)n1-c1ccc(S(N)(=O)=O)cc1
153,–,Cc1c(C(=O)NCCN2CCCC2)cc(-c2ccc(-c3ccccc3)cc2)n1-c1ccc(S(N)(=O)=O)cc1
198,–,Cc1c(C(=O)NCCCN2CCN(C)CC2)cc(-c2ccc(-c3ccccc3)cc2)n1-c1ccc(S(N)(=O)=O)cc1

SMILES,Ki (Carbonic anhydrase 9) [nM],Ki (Carbonic anhydrase 1) [nM]
Cc1c(C(=O)NCCN(C)C)cc(-c2ccccc2)n1-c1ccc(S(N)(=O)=O)cc1,242,–
Cc1c(C(=O)NCCCN(C)C)cc(-c2ccccc2)n1-c1ccc(S(N)(=O)=O)cc1,131,–
Cc1c(C(=O)NCCN2CCCCC2)cc(-c2ccccc2)n1-c1ccc(S(N)(=O)=O)cc1,89,–
Cc1c(C(=O)NCCN2CCCC2)cc(-c2ccc3ccccc3c2)n1-c1ccc(S(N)(=O)=O)cc1,30,–
Cc1c(C(=O)NCCCN2CCOCC2)cc(-c2ccc3ccccc3c2)n1-c1ccc(S(N)(=O)=O)cc1,137,–
Cc1c(C(=O)NCCN2CCCCC2)cc(-c2ccc(-c3ccccc3)cc2)n1-c1ccc(S(N)(=O)=O)cc1,167,–
